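How tested: cells in 96-well plates exposed to compound for 48 hours at five concentrations. The concentration for 50% growth inhibition is given as GI50.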 Activity calls are given as the source filed them. Rule as the data show it: active = GI50 up to about 1.1 µM and inactive = higher.
Tests used:
Assay in all cases: NCI anticancer screen, dose series, 48 h
[1] = system: MDA-MB-231
[2] = system: TK-10
[3] = system: Hs-578T
[4] = system: MDA-MB-435
[5] = system: A498
[6] = system: SNB-19
[7] = system: Malme-3M
[8] = system: T47D
[9] = system: SK-MEL-2
[10] = system: HOP-62
[11] = system: NCI-H460
[12] = system: MDA-N
[13] = system: UACC-257
[14] = system: DU-145
[15] = system: ACHN
[16] = system: BT-549

Measured: GI50

COc1cc(O)cc2oc(-c3ccc(O)cc3)cc(=O)c12
inactive: [1] > 100 µM | [2] > 100 µM | [3] 57 µM | [4] > 100 µM | [5] 29.6 µM | [6] > 100 µM | [7] 76.6 µM | [8] 50.4 µM | [9] 52.8 µM | [10] 74.6 µM | [11] 67.5 µM | [12] > 100 µM | [13] > 100 µM | [14] > 100 µM | [15] 64.7 µM | [16] 47.1 µM

c1ccc(CSC2(SCc3ccccc3)CCCC2)cc1
inactive: [1] > 10 µM | [2] > 10 µM | [3] 6.97 µM | [4] > 10 µM | [5] > 10 µM | [6] > 10 µM | [7] > 10 µM | [8] > 10 µM | [9] > 10 µM | [10] > 10 µM | [11] > 10 µM | [12] > 10 µM | [14] > 10 µM | [15] > 10 µM

CC1(C)CC(=O)C2=C(C1)OC1=C(CC(C)(C)CC1=O)C2c1ccccc1[N+](=O)[O-] (centres undefined)
inactive: [1] > 100 µM | [2] > 100 µM | [3] > 100 µM | [4] > 100 µM | [5] > 100 µM | [6] > 100 µM | [7] > 100 µM | [8] > 100 µM | [9] > 100 µM | [10] > 100 µM | [11] > 100 µM | [12] > 100 µM | [14] > 100 µM | [15] > 100 µM

c1ccc(C(NC2=NCCO2)c2ccccc2)cc1
inactive: [1] > 10 µM | [2] > 10 µM | [3] > 10 µM | [4] > 10 µM | [5] 5.75 µM | [6] > 10 µM | [7] > 10 µM | [8] > 10 µM | [9] > 10 µM | [10] > 10 µM | [11] > 10 µM | [12] > 10 µM | [14] > 10 µM | [15] > 10 µM

O=C(O)Cc1cc(F)ccc1C(=O)O
inactive: [1] > 100 µM | [2] > 100 µM | [3] > 100 µM | [4] > 100 µM | [5] > 100 µM | [6] > 100 µM | [8] > 100 µM | [9] > 100 µM | [10] > 100 µM | [11] > 100 µM | [12] > 100 µM | [13] > 100 µM | [14] > 100 µM | [15] > 100 µM | [16] > 100 µM

O=C(c1ccccc1Br)C(F)(F)F
inactive: [1] > 100 µM | [2] > 100 µM | [3] > 100 µM | [4] > 100 µM | [5] > 100 µM | [6] > 100 µM | [7] > 100 µM | [8] 48.5 µM | [9] > 10 µM | [10] > 100 µM | [11] > 100 µM | [12] > 100 µM | [14] > 100 µM | [15] > 100 µM | [16] > 100 µM

CC(=O)OC(OC(C)=O)n1cc(C=O)c2ccccc21
inactive: [1] > 100 µM | [2] > 100 µM | [3] > 100 µM | [5] 36.7 µM | [6] > 100 µM | [8] > 100 µM | [9] > 100 µM | [10] > 100 µM | [11] > 100 µM | [13] > 100 µM | [14] > 100 µM | [15] > 100 µM

N#Cc1c(=O)c2cccnc2n2c1[nH]c1ccccc12
inactive: [1] 27 µM | [2] 55.5 µM | [3] 21.6 µM | [4] > 100 µM | [5] 77.3 µM | [6] 57.7 µM | [8] > 100 µM | [9] > 100 µM | [10] 41.4 µM | [11] 69.2 µM | [12] > 100 µM | [13] > 100 µM | [14] > 100 µM | [15] 42.1 µM | [16] 57.3 µM

CN(/N=C1\C(=O)Nc2ccccc21)c1ccccc1
inactive: [1] 9.4 µM | [2] 69.2 µM | [3] 29.6 µM | [4] > 100 µM | [5] > 100 µM | [6] > 100 µM | [7] 31.9 µM | [8] 34.7 µM | [9] > 100 µM | [10] 49.7 µM | [11] 91.8 µM | [12] 40.6 µM | [13] > 100 µM | [14] > 100 µM | [15] 77.6 µM

Cc1cnc(/N=c2\sc(C)cn2-c2ncc(C)s2)s1
inactive: [1] > 100 µM | [2] > 100 µM | [3] > 100 µM | [4] > 100 µM | [6] > 100 µM | [7] > 100 µM | [8] > 100 µM | [10] > 100 µM | [11] > 100 µM | [12] > 100 µM | [13] > 100 µM | [14] > 100 µM | [15] > 100 µM | [16] > 100 µM

CC(=O)C1CC[C@@H]2[C@H](CC[C@]3(C)[C@@H](O)CC[C@@H]23)[C@H]1C(=O)O (some centres undefined)
inactive: [1] > 100 µM | [2] > 100 µM | [3] 74.1 µM | [4] > 100 µM | [5] > 100 µM | [6] > 100 µM | [7] > 100 µM | [9] > 100 µM | [10] > 100 µM | [11] > 100 µM | [13] > 100 µM | [16] > 100 µM

CCCNC(=S)N/C=C1/C(=O)Oc2ccccc2C1=O
inactive: [1] > 100 µM | [2] > 100 µM | [3] 50.4 µM | [4] > 100 µM | [5] 88.9 µM | [6] > 100 µM | [7] 63.7 µM | [9] 75.3 µM | [10] > 100 µM | [11] > 100 µM | [12] > 100 µM | [13] > 100 µM | [14] 54.1 µM | [15] 94.8 µM | [16] > 100 µM

CC(=O)OCC1OC(n2c3c(c(-c4ccco4)c(C#N)c2=S)CCC3)C(OC(C)=O)C(OC(C)=O)C1OC(C)=O (centres undefined)
inactive: [2] 69.3 µM | [3] 40.9 µM | [4] 68.9 µM | [6] > 100 µM | [7] > 100 µM | [9] > 100 µM | [10] > 100 µM | [11] > 100 µM | [12] > 100 µM | [13] > 100 µM | [14] > 100 µM | [15] > 100 µM | [16] 43.9 µM

COc1ccc(/C(C#N)=C/c2ccc(OC)c(OC)c2)cc1
inactive: [1] > 100 µM | [2] > 100 µM | [3] > 100 µM | [4] 83.4 µM | [5] > 100 µM | [6] > 100 µM | [7] > 100 µM | [8] 49.5 µM | [9] > 100 µM | [10] > 100 µM | [11] > 100 µM | [12] > 100 µM | [13] > 100 µM | [14] > 100 µM | [15] > 100 µM

From ChEMBL document CHEMBL1201862, “PubChem BioAssay data set” (2004)
